{"source": "ChEMBL document CHEMBL1141539", "about": "“Neutral 5-substituted 4-indazolylaminoquinazolines as potent, orally active inhibitors of erbB2 receptor tyrosine kinase” (Bioorg Med Chem Lett, 2008)", "key": {"[1]": {"test": "Solubility in aqueous phosphate buffer at pH 7.4 after 24 hrs", "format": "physicochemical"}, "Phospholipidosis": {"system": "Phospholipidosis", "test": "In vivo phospholipidosis in rat", "format": "ADME, organism-based"}, "[2]": {"test": "Volume of distribution at steady state in dog at 1 mg/kg, iv and 2 mg/kg, po", "format": "ADME, organism-based, Canis lupus familiaris", "conditions": "in vivo, read-out: Vdss; call rule not given here"}, "[3]": {"test": "Volume of distribution at steady state in rat at 1 mg/kg, iv and 2 mg/kg, po", "format": "ADME, organism-based", "conditions": "in vivo, read-out: Vdss"}, "[4]": {"test": "Oral bioavailability in rat at 2 mg/kg", "format": "ADME, organism-based", "conditions": "in vivo"}, "[5]": {"test": "Oral bioavailability in dog at 2 mg/kg, po", "format": "ADME, organism-based, Canis lupus familiaris", "conditions": "in vivo"}, "[6]": {"test": "Distribution coefficient, log D at pH 7.4", "format": "physicochemical", "conditions": "octanol/water"}, "[7]": {"test": "Permeability across dog MDCK-MDR cell membrane", "format": "ADME, cell-based, Canis lupus familiaris", "conditions": "MDCK-MDR1"}}, "data": [{"molecule": "C[C@@H](Oc1cccc2ncnc(Nc3ccc4c(cnn4Cc4ccccn4)c3)c12)C(N)=O", "values": [{"measurement": "solubility at 24 h", "setting": "[1]", "value": 3, "unit": "µM"}]}, {"molecule": "CNC(=O)[C@@H](C)Oc1cccc2ncnc(Nc3ccc4c(cnn4Cc4ccccn4)c3)c12", "values": [{"measurement": "solubility at 24 h", "setting": "[1]", "value": 4, "unit": "µM"}]}, {"molecule": "C[C@@H](Oc1cccc2ncnc(Nc3ccc4c(cnn4Cc4cccc(F)c4)c3)c12)C(=O)N(C)C", "values": [{"measurement": "solubility at 24 h", "setting": "[1]", "value": 3, "unit": "µM"}]}, {"molecule": "C[C@@H](Oc1cccc2ncnc(Nc3ccc4c(cnn4Cc4cscn4)c3)c12)C(=O)N(C)C", "values": [{"measurement": "solubility at 24 h", "setting": "[1]", "value": 44, "unit": "µM"}]}, {"molecule": "C[C@@H](Oc1cccc2ncnc(Nc3ccc4c(cnn4Cc4nccs4)c3)c12)C(=O)N(C)C", "values": [{"measurement": "solubility at 24 h", "setting": "[1]", "value": 29, "unit": "µM"}]}, {"molecule": "C[C@@H](Oc1cccc2ncnc(Nc3ccc4c(cnn4Cc4nccs4)c3)c12)C(=O)N1CCOCC1", "values": [{"measurement": "Phospholipidosis", "setting": "Phospholipidosis", "value": "Not Active"}, {"measurement": "Vd", "setting": "[2]", "value": 3.1, "unit": "L/kg"}, {"measurement": "Vd", "setting": "[3]", "value": 2, "unit": "L/kg"}, {"measurement": "bioavailability", "setting": "[4]", "value": 50, "unit": "%"}, {"measurement": "bioavailability", "setting": "[5]", "value": 36, "unit": "%"}, {"measurement": "solubility at 24 h", "setting": "[1]", "value": 101, "unit": "µM"}, {"measurement": "logD", "setting": "[6]", "value": 2.6}, {"measurement": "Papp", "setting": "[7]", "value": 100, "unit": "nm/s"}]}, {"molecule": "C[C@@H](Oc1cccc2ncnc(Nc3ccc4c(cnn4Cc4ccccn4)c3)c12)C(=O)N(C)C", "values": [{"measurement": "Vd", "setting": "[2]", "value": 2.3, "unit": "L/kg"}, {"measurement": "Vd", "setting": "[3]", "value": 2.1, "unit": "L/kg"}, {"measurement": "bioavailability", "setting": "[4]", "value": 36, "unit": "%"}, {"measurement": "bioavailability", "setting": "[5]", "value": 40, "unit": "%"}, {"measurement": "solubility at 24 h", "setting": "[1]", "value": 270, "unit": "µM"}, {"measurement": "logD", "setting": "[6]", "value": 2.9}]}]}
